According to EP0745599A2, “1-(3-Heterocyclylphenyl)-s-triazine-2,4,6-oxo or thiotrione herbicidal agents” (American Cyanamid Company, priority 1995, dated 1996):

Columns and labels:
Assay type in all cases: in vivo
Conditions in all cases: rated four to five weeks after treatment
[1] = test system: SETARIA VIRIDIS, (L) BEAU; experiment: Preemergence herbicidal evaluation, SETVI (Foxtail, Green)
How it was run: (§1)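 Values are visual ratings from 0 to 9, judged against a control on stand, vigor, malformation, size, chlorosis and overall appearance. Test compound in aqueous acetone was sprayed onto freshly seeded cups at roughly 0.125 to 0.50 kg per hectare, with scoring four to five weeks later.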

[2] = test system: SETARIA VIRIDIS, (L) BEAU; experiment: Postemergence herbicidal evaluation, SETVI (Foxtail, Green)
Method: (§2) In the tests, seedling plants are grown in jiffy flats for about two weeks. The test compounds are dispersed in 50/50 acetone/water mixtures containing 0.5% TWEEN®20, a polyoxyethylene sorbitan monolaurate surfactant of Atlas Chemical Industries, in sufficient quantities to provide the equivalent of about 0.125 kg to 0.500 kg per hectare of active compound when applied to the plants through a spray nozzle operating at 40 psi for a predetermined time. After spraying, the plants are placed on greenhouse benches and are cared for in the usual manner, commensurate with conventional greenhouse practices. From four to five weeks after treatment, the seedling plants are examined and rated according to the rating system set forth below. Where more than one test is involved for a given compound, the data are averaged.
(§3) Results of herbicide evaluation are expressed on a rating scale (0-9). The scale is based upon a visual observation of plant stand, vigor, malformation, size, chlorosis and overall plant appearance as compared with a control.

GALIUM APARINE = experiment: Preemergence herbicidal evaluation, GALAP (Galium)
How it was run: as §1

CHENOPODIUM ALBUM, L. = experiment: Preemergence herbicidal evaluation, CHEAL (Lambsquarters, Common)
How it was run: as §1

CASSIA OBTUSIFOLIA, L. [3] = experiment: Postemergence herbicidal evaluation, CASOB (Sicklepod)
Method: as §2, §3

[4] = test system: ABUTILON THEOPHRASTI, MEDIC.; experiment: Preemergence herbicidal evaluation, ABUTH (Velvetleaf)
How it was run: as §1

ZEA MAYS L. = experiment: Preemergence herbicidal evaluation, ZEAMX (Corn, Field)
How it was run: as §1

[5] = test system: AMBROSIA ARTEMISIIFOLIA, L.; experiment: Preemergence herbicidal evaluation, AMBEL (Ragweed, Common)
How it was run: as §1

[6] = test system: TRITICUM AESTIVUM, CV. APOLLO; experiment: Postemergence herbicidal evaluation, TRZAWO (Wheat, Winter, CV. APOLLO)
Method: as §2, §3

[7] = test system: ECHINOCHLOA CRUS-GALLI, (L) BEAU; experiment: Postemergence herbicidal evaluation, ECHCG (Barnyardgrass)
How it was run: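 Visual 0-9 ratings (stand, vigor, malformation, size, chlorosis, appearance relative to control) were taken four to five weeks post-spray and averaged across repeat tests. Treatment was a 40 psi foliar spray on two-week seedlings, equivalent to about 0.125-0.500 kg/ha, formulated in acetone/water (50/50) plus 0.5% TWEEN 20.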

CASSIA OBTUSIFOLIA, L. [8] = experiment: Preemergence herbicidal evaluation, CASOB (Sicklepod)
How it was run: as §1

[9] = test system: ORYZA SATIVA, L. TEBONNET; experiment: Postemergence herbicidal evaluation, ORYSAT (Rice, Tebonnet)
Method: as §2, §3

[10] = test system: TRITICUM AESTIVUM, CV. APOLLO; experiment: Preemergence herbicidal evaluation, TRZAWO (Wheat, Winter, CV. APOLLO)
How it was run: as §1

[11] = test system: ECHINOCHLOA CRUS-GALLI, (L) BEAU; experiment: Preemergence herbicidal evaluation, ECHCG (Barnyardgrass)
How it was run: as §1

[12] = test system: ORYZA SATIVA, L. TEBONNET; experiment: Preemergence herbicidal evaluation, ORYSAT (Rice, Tebonnet)
How it was run: as §1

[13] = test system: GLYCINE MAX(L)MERR. CV. WILLIAMS; experiment: Preemergence herbicidal evaluation, GLXMAW (Soybean, Williams)
How it was run: as §1

IPOMOEA SPP. = experiment: Preemergence herbicidal evaluation, IPOSS (Morningglory Spp.)
How it was run: as §1

CCOC(=O)Cn1c(=O)n(CC(=O)OC(C)(C)C)c(=O)n(-c2ccc(F)c(N3C(=O)C4=C(CCCC4)C3=O)c2)c1=O [Compound 8, 5-[3-(1-Cyclohexene-1,2-dicarboximido)-4-fluorophenyl]dihydro-2,4,6-trioxo-s-tri-azine-1,3(2H,4H)-diacetic acid, 1-tert-butyl, ethyl ester]
0.5: Herbicide rating (0-9) TRZAWO ([6]; 0.125 kg/ha) | Herbicide rating (0-9) TRZAWO ([6]; 0.250 kg/ha) | Herbicide rating (0-9) TRZAWO ([6]; 0.500 kg/ha)
0.0: Herbicide rating (0-9) SETVI ([1]; 0.125 kg/ha) | Herbicide rating (0-9) SETVI ([1]; 0.250 kg/ha) | Herbicide rating (0-9) SETVI ([1]; 0.500 kg/ha) | Herbicide rating (0-9) SETVI ([2]; 0.125 kg/ha) | Herbicide rating (0-9) SETVI ([2]; 0.250 kg/ha) | Herbicide rating (0-9) SETVI ([2]; 0.500 kg/ha) | Herbicide rating (0-9) GALAP (GALIUM APARINE; 0.125 kg/ha) | Herbicide rating (0-9) GALAP (GALIUM APARINE; 0.250 kg/ha) | Herbicide rating (0-9) GALAP (GALIUM APARINE; 0.500 kg/ha) | Herbicide rating (0-9) CHEAL (CHENOPODIUM ALBUM, L.; 0.125 kg/ha) | Herbicide rating (0-9) CHEAL (CHENOPODIUM ALBUM, L.; 0.250 kg/ha) | Herbicide rating (0-9) CHEAL (CHENOPODIUM ALBUM, L.; 0.500 kg/ha) | Herbicide rating (0-9) CASOB (CASSIA OBTUSIFOLIA, L. [3]; 0.125 kg/ha) | Herbicide rating (0-9) CASOB (CASSIA OBTUSIFOLIA, L. [3]; 0.250 kg/ha) | Herbicide rating (0-9) CASOB (CASSIA OBTUSIFOLIA, L. [3]; 0.500 kg/ha) | Herbicide rating (0-9) ABUTH ([4]; 0.125 kg/ha) | Herbicide rating (0-9) ABUTH ([4]; 0.250 kg/ha) | Herbicide rating (0-9) ABUTH ([4]; 0.500 kg/ha) | Herbicide rating (0-9) ZEAMX (ZEA MAYS L.; 0.125 kg/ha) | Herbicide rating (0-9) ZEAMX (ZEA MAYS L.; 0.250 kg/ha) | Herbicide rating (0-9) ZEAMX (ZEA MAYS L.; 0.500 kg/ha) | Herbicide rating (0-9) AMBEL ([5]; 0.125 kg/ha) | Herbicide rating (0-9) AMBEL ([5]; 0.250 kg/ha) | Herbicide rating (0-9) AMBEL ([5]; 0.500 kg/ha) | Herbicide rating (0-9) ECHCG ([7]; 0.125 kg/ha) | Herbicide rating (0-9) ECHCG ([7]; 0.250 kg/ha) | Herbicide rating (0-9) ECHCG ([7]; 0.500 kg/ha) | Herbicide rating (0-9) CASOB (CASSIA OBTUSIFOLIA, L. [8]; 0.125 kg/ha) | Herbicide rating (0-9) CASOB (CASSIA OBTUSIFOLIA, L. [8]; 0.250 kg/ha) | Herbicide rating (0-9) CASOB (CASSIA OBTUSIFOLIA, L. [8]; 0.500 kg/ha) | Herbicide rating (0-9) TRZAWO ([10]; 0.125 kg/ha) | Herbicide rating (0-9) TRZAWO ([10]; 0.250 kg/ha) | Herbicide rating (0-9) TRZAWO ([10]; 0.500 kg/ha) | Herbicide rating (0-9) ECHCG ([11]; 0.125 kg/ha) | Herbicide rating (0-9) ECHCG ([11]; 0.250 kg/ha) | Herbicide rating (0-9) ECHCG ([11]; 0.500 kg/ha) | Herbicide rating (0-9) ORYSAT ([12]; 0.125 kg/ha) | Herbicide rating (0-9) ORYSAT ([12]; 0.250 kg/ha) | Herbicide rating (0-9) ORYSAT ([12]; 0.500 kg/ha) | Herbicide rating (0-9) GLXMAW ([13]; 0.125 kg/ha) | Herbicide rating (0-9) GLXMAW ([13]; 0.250 kg/ha) | Herbicide rating (0-9) GLXMAW ([13]; 0.500 kg/ha) | Herbicide rating (0-9) IPOSS (IPOMOEA SPP.; 0.125 kg/ha) | Herbicide rating (0-9) IPOSS (IPOMOEA SPP.; 0.250 kg/ha) | Herbicide rating (0-9) IPOSS (IPOMOEA SPP.; 0.500 kg/ha)
1.5: Herbicide rating (0-9) ORYSAT ([9]; 0.125 kg/ha) | Herbicide rating (0-9) ORYSAT ([9]; 0.250 kg/ha) | Herbicide rating (0-9) ORYSAT ([9]; 0.500 kg/ha)
